The nature of data set [1]: log P determination by HPLC on reversed-phase columns (C 18), analogous to OECD Guideline 117. The class given is physicochemical. The note with it: for chromatographic logP: reversed-phase C18 HPLC column. On the procedure: The log P values were determined analogously to OECD Guideline 117 (EC Directive 92/69/EEC) by HPLC (high-performance liquid chromatography) using reversed-phase columns (C 18), by the following methods: [a] The LC-MS determination in the acidic range was effected at pH 2.7 with 0.1% aqueous formic acid and acetonitrile (contains 0.1% formic acid) as eluents; linear gradient from 10% acetonitrile to 95% acetonitrile. log P^[a] is also referred to as log P(HCOOH). [b] LC-MS determination in the neutral range was effected at pH 7.8 with 0.001 molar aqueous ammonium hydrogencarbonate solution and acetonitrile as eluents; linear gradient from 10% acetonitrile to 95% acetonitrile. log P^[…] is also referred to as log P(neutral).

Data set [2] relates to Tetranychus urticae. As to the kind of experiment: Tetranychus urticae spray test, OP-resistant. Format: in vivo. Particulars: 500 g/ha, bean leaf discs, after 6 days. The method, then: Tetranychus urticae—Spray Test, OP-Resistant
(§1) To produce a suitable preparation of active compound, 1 part by weight of active compound is dissolved using the stated parts by weight of solvent and made up with water containing an emulsifier concentration of 1000 ppm until the desired concentration is attained. To produce further test concentrations, the preparation is diluted with emulsifier-containing water.
Discs of bean leaves (Phaseolus vulgaris) infested with all stages of the greenhouse red spider mite (Tetranychus urticae) are sprayed with an active compound preparation of the desired concentration.
After 6 days, the efficacy in % is determined. 100% means that all the spider mites have been killed; 0% means that none of the spider mites have been killed.

Data set [3] concerns Boophilus microplus. The experiment in a line: Boophilus microplus injection test. The class given is in vivo. The note with it: 20 μg/animal, injection into engorged adult female cattle ticks, after 7 days; 100% = no fertile eggs. The method, then: Boophilus microplus—Injection Test Solvent: dimethyl sulfoxide To produce a suitable preparation of active compound, 10 mg of active compound are mixed with 0.5 ml of solvent and the concentrate is diluted with solvent to the desired concentration. 1 μl of the active compound solution is injected into the abdomen of 5 engorged adult female cattle ticks (Boophilus microplus). The animals are transferred into dishes and kept in a climate-controlled room. Efficacy is assessed after 7 days by laying of fertile eggs. Eggs which are not visibly fertile are stored in a climate-controlled cabinet until the larvae hatch after about 42 days. An efficacy of 100% means that none of the ticks has laid any fertile eggs; 0% means that all the eggs are fertile.

Data set [4] deals with Phaedon cochleariae. The experiment in a line: Phaedon cochleariae spray test. Particulars: 500 g/ha, Chinese cabbage leaf discs, after 7 days. Format: in vivo. On the procedure: Phaedon cochleariae—Spray Test
as §1
After 7 days, the efficacy in % is determined. 100% means that all the beetle larvae have been killed; 0% means that no beetle larvae have been killed.

The test system of data set [5] is Meloidogyne incognita. The experiment in a line: Meloidogyne incognita test. Particulars: 20 ppm, lettuce, after 14 days; 100% = no galls. The class given is in vivo. The method, then:
Meloidogyne incognita Test Solvent: 125.0 parts by weight of acetone To produce a suitable preparation of active compound, 1 part by weight of active compound is mixed with the stated amount of solvent and the concentrate is diluted with water to the desired concentration. Vessels are filled with sand, active compound solution, an egg/larvae suspension of the southern root-knot nematode (Meloidogyne incognita) and lettuce seeds. The lettuce seeds germinate and the plants develop. The galls develop on the roots. After 14 days, the nematicidal efficacy in % is determined by the formation of galls. 100% means that no galls were found; 0% means that the number of galls on the treated plants corresponds to the untreated control.

The mark [6] stands for this setting: acidic range, pH 2.7, 0.1% aqueous formic acid and acetonitrile, read-out: logP(HCOOH).
Where [7] appears, read: neutral range, pH 7.8, 0.001 molar aqueous ammonium hydrogencarbonate and acetonitrile, read-out: logP(neutral).
[8] abbreviates: acidic range, pH 2.7, 0.1% aqueous formic acid and acetonitrile.
Setting [9] is: neutral range, pH 7.8, 0.001 molar aqueous ammonium hydrogencarbonate and acetonitrile.

Read-outs that look alike come from different tables or passages of the source.

20 compounds from patent publication US20160108038A1, “BICYCLIC ARYL SULFIDE AND ARYL SULFOXIDE DERIVATIVES AS PEST CONTROL AGENT” (BAYER CROPSCIENCE AKTIENGESELLSCHAFT, priority 2013, published 2016) can be followed below.

In the case of `Cc1cc(F)c(NC(=O)c2cccnc2N)cc1SCC(F)(F)F` [2-Amino-N-{2-fluoro-4-methyl-5-[(2,2,2-trifluoroethyl)sulfanyl]phenyl}nicotinamide], the values for the chromatographic logP in data set [1] (setting [6]) and in data set [1] (setting [7]) were 1.7 and 2.71, respectively.

For the compound `Cc1nc2ncccc2c(=O)o1` [2-Methyl-4H-pyrido[2,3-d][1,3]oxazin-4-one], the figures for the chromatographic logP in data set [1] (setting [6]) and in data set [1] (setting [7]) were 0.42 and 0.43, respectively.

As to `Cc1cc(F)c(-n2cnc3ccncc3c2=O)cc1SCC(F)(F)F` [Compound 1], in data set [1] (setting [8]), the “logP(HCOOH)” value is 2.54. In data set [1] (setting [9]), the “logP(neutral)” value came to 2.56. In addition, the “efficacy (spider mites killed)” value in data set [2] was 100%.

On to `Cc1cc(F)c(-n2cnc3ncccc3c2=O)cc1SCC(F)(F)F` [Compound 2, 3-{2-Fluoro-4-methyl-5-[(2,2,2-trifluoroethyl)sulfanyl]phenyl}-2-pyrido [2,3-d]pyrimidin-4(3H)-one], for which the chromatographic logP in data set [1] (setting [6]) and in data set [1] (setting [7]) was 2.43 in each case. In addition, the “efficacy (spider mites killed)” value in data set [2] is reported as 90%.

`O=c1c2cccnc2ncn1-c1cc(SCC(F)(F)F)c(Cl)cc1Cl` [Compound 3]: the “logP(HCOOH)” value in data set [1] (setting [8]) stood at 2.73. Also, the “logP(neutral)” value in data set [1] (setting [9]) turned out to be 2.68.

For `Cc1cc(C)c(-n2cnc3ncccc3c2=O)cc1SCC(F)(F)F` [Compound 4], the “logP(HCOOH)” value in data set [1] (setting [8]) was 2.53. Also, the “logP(neutral)” value in data set [1] (setting [9]) is listed as 2.54. Further, the “efficacy (spider mites killed)” value in data set [2] was 100%.

As for `Cc1cc(F)c(-n2cnc3ncccc3c2=O)cc1[S+]([O-])CC(F)(F)F` (stereo not drawn) [Compound 5, 3-{2-Fluoro-4-methyl-5-[(2,2,2-trifluoroethyl)sulfinyl]phenyl}pyrido[2,3-d]pyrimidin-4(3H)-one], the chromatographic logP in data set [1] (setting [6]) and in data set [1] (setting [7]) was 1.56 in each case. In addition, in data set [2], the “efficacy (spider mites killed)” value is on record as 90%.

Take `Cc1cc(C)c([S+]([O-])CC(F)(F)F)cc1-n1cnc2ncccc2c1=O` (stereo not drawn) [Compound 6]: in data set [1] (setting [8]), the “logP(HCOOH)” value amounted to 1.62. The “logP(neutral)” value in data set [1] (setting [9]) is 1.61. Further, in data set [3], the “efficacy (laying of fertile eggs)” value was 100%. In data set [2], the “efficacy (spider mites killed)” value is recorded as 100%.

In the case of `O=c1c2cccnc2ncn1-c1cc([S+]([O-])CC(F)(F)F)c(Cl)cc1Cl` (stereo not drawn) [Compound 7], the “logP(HCOOH)” value in data set [1] (setting [8]) is on record as 1.98. Also, the “logP(neutral)” value in data set [1] (setting [9]) was found to be 1.84. Moreover, in data set [2], the “efficacy (spider mites killed)” value is listed as 90%.

`Cc1cc(F)c(-n2c(C)nc3ncccc3c2=O)cc1SCC(F)(F)F` [Compound 8, 3-{2-Fluoro-4-methyl-5-[(2,2,2-trifluoroethyl)sulfanyl]phenyl}-2-mehtylpyrido[2,3-d]pyrimidin-4(3H)-one]: the chromatographic logP was 2.55 in data set [1] (setting [6]) and 2.52 in data set [1] (setting [7]). The “efficacy (spider mites killed)” value in data set [2] was 100%.

For `Cc1cc(F)c(-n2cnc3cccnc3c2=O)cc1SCC(F)(F)F` [Compound 9], the “logP(HCOOH)” value in data set [1] (setting [8]) is given as 2.33. In data set [2], the “efficacy (spider mites killed)” value worked out at 100%.

In the case of `Cc1cc(F)c(-n2c(C)nc3ncccc3c2=O)cc1[S+]([O-])CC(F)(F)F` (stereo not drawn) [Compound 10, 3-{2-Fluoro-4-methyl-5-[(2,2,2-trifluoroethyl)sulfinyl]phenyl}-2-mehtylpyrido[2,3-d]pyrimidin-4(3H)-one], the chromatographic logP came out at 1.66 in data set [1] (setting [6]) and 1.64 in data set [1] (setting [7]). For the same compound, the “efficacy (spider mites killed)” value in data set [2] was 100%.

On to `Cc1cc(F)c(-n2cnc3cccnc3c2=O)cc1[S+]([O-])CC(F)(F)F` (stereo not drawn) [Compound 11], for which the “logP(HCOOH)” value in data set [1] (setting [8]) is on record as 1.49. In data set [1] (setting [9]), the “logP(neutral)” value worked out at 1.46. For the same compound, in data set [4], the “efficacy (beetle larvae killed)” value stood at 100%. In addition, the “efficacy (spider mites killed)” value in data set [2] came out at 100%.

`Cc1cc(F)c(-n2cnc3cnccc3c2=O)cc1SCC(F)(F)F` [Compound 12]: the “logP(HCOOH)” value in data set [1] (setting [8]) came out at 2.55. The “logP(neutral)” value in data set [1] (setting [9]) was found to be 2.56.

In the case of `Cc1cc(F)c(-n2cnc3cnccc3c2=O)cc1[S+]([O-])CC(F)(F)F` (stereo not drawn) [Compound 13], the “logP(HCOOH)” value in data set [1] (setting [8]) was 1.60. Further, the “logP(neutral)” value in data set [1] (setting [9]) is reported as 1.63. The “efficacy (spider mites killed)” value in data set [2] is recorded as 100%.

For `Cc1cc(F)c(-n2cnc3ccncc3c2=O)cc1[S+]([O-])CC(F)(F)F` (stereo not drawn) [Compound 14], the “logP(HCOOH)” value in data set [1] (setting [8]) amounted to 1.61. In data set [1] (setting [9]), the “logP(neutral)” value came to 1.64. Also, the “efficacy (laying of fertile eggs)” value in data set [3] was 100%. In addition, the “efficacy (spider mites killed)” value in data set [2] is listed as 90%.

On to `Cc1cc(Cl)c(-n2cnc3ncccc3c2=O)cc1SCC(F)(F)F` [Compound 15], for which, in data set [1] (setting [8]), the “logP(HCOOH)” value was 2.62. In addition, the “logP(neutral)” value in data set [1] (setting [9]) is 2.62.

In the case of `Cc1cc(C)c(-n2c(C)nc3ncccc3c2=O)cc1SCC(F)(F)F` [Compound 16], in data set [1] (setting [8]), the “logP(HCOOH)” value turned out to be 2.63. Also, the “logP(neutral)” value in data set [1] (setting [9]) came out at 2.60.

For the compound `Cc1cc(C)c([S+]([O-])CC(F)(F)F)cc1-n1c(C)nc2ncccc2c1=O` (stereo not drawn) [Compound 17], the “logP(HCOOH)” value in data set [1] (setting [8]) was 1.67. Moreover, the “logP(neutral)” value in data set [1] (setting [9]) worked out at 1.67. In addition, in data set [5], the “nematicidal efficacy (formation of galls)” value is 90%. Besides, the “efficacy (spider mites killed)” value in data set [2] stood at 90%.

Turning to `Cc1cc(Cl)c(-n2cnc3ncccc3c2=O)cc1[S+]([O-])CC(F)(F)F` (stereo not drawn) [Compound 18], the “logP(HCOOH)” value in data set [1] (setting [8]) amounted to 1.77. The “logP(neutral)” value in data set [1] (setting [9]) worked out at 1.73. In addition, the “efficacy (spider mites killed)” value in data set [2] was determined as 100%.
